Results: publication PMC8232766, “Chemical Composition and Immunomodulatory Activity of Essential Oils from Rhododendron albiflorum” (Molecules, 2021)

Key:
[1] = tested on: human neutrophils; design: method as in PMID 27586050, PMID 25959257; settings: direct effect; previous studies; cited from earlier work
[2] = tested on: human neutrophils; settings: cited from earlier work; for Inhibition of agonist-induced neutrophil Ca2+ mobilization: previous studies; for Inhibition of agonist-induced Ca2+ mobilization in human neutrophils: found previously
[3] = tested on: human neutrophils; assay: Ca2+ influx (direct effect) in human neutrophils; type: cell-based; settings: pure compounds, direct effect on [Ca2+]i, mean ± SD of three experiments; for EC50: Homo sapiens, Neutrophil
Source text: (§1) For isolation of human neutrophils, blood was collected from healthy donors in accordance with a protocol approved by the Institutional Review Board at Montana State University (Protocol #MQ041017), as described previously. Isolated neutrophils were washed and resuspended in HBSS^–. Neutrophil preparations were routinely >95% pure and >98% viable. Neutrophils were obtained from multiple different donors (n = 8); however, the cells from different donors were never pooled during experiments.
(§2) Changes in intracellular Ca^2+ concentrations ([Ca^2+]i) in human neutrophils were measured with a FlexStation 3 scanning fluorometer (Molecular Devices), as previously described. To assess the direct effects of test compounds or pure essential oils on Ca^2+ influx, the compounds/oils were added to the wells (final concentration of DMSO was 1%), and changes in fluorescence were monitored (λex = 485 nm, λem = 538 nm) every 5 s for 240 s at room temperature after addition of the test compound. To evaluate inhibitory effects of the compounds on FPR1/FPR2-dependent Ca^2+ influx, the compounds were added to the wells (final concentration of DMSO was 1%) with cells (human neutrophils or FPR1/FPR2 HL60 cells). The samples were preincubated for 10 min, followed by addition of 5 nM fMLF (for human neutrophils or FPR1-HL60 cells) or 5 nM WKYMVM (for FPR2-HL60 cells). The maximum change in fluorescence, expressed in arbitrary units over baseline, was used to determine the agonist response. Responses were normalized to the response induced by 5 nM fMLF or 5 nM WKYMVM, which were assigned as 100%.
(§3) For all Ca^2+ influx experiments, curve fitting (at least five or six points) and calculation of median effective concentration values (EC50 or IC50) were performed by nonlinear regression analysis of the dose–response curves generated using Prism 7 (GraphPad Software, Inc., San Diego, CA, USA).

[4] = tested on: human C20 microglial cells; assay: Ca2+ influx (direct effect) in C20 microglial cells; type: cell-based; settings: pure compounds, direct effect on [Ca2+]i, mean ± SD of three experiments; for EC50: Homo sapiens
Description: (§4) Human C20 microglial cells were kindly provided by Dr. David Alvarez-Carbonell (Department of Molecular Biology and Microbiology, Case Western Reserve University, Cleveland, OH, USA); these are immortalized primary human microglial cells that maintain characteristics of primary microglial cells. C20 cells were grown at 37 °C and 5% CO2 in DMEM:F12 medium supplemented with 10% FBS, 2.5 mM L-glutamine, 110 mg/L sodium pyruvate, 15 mM HEPES, 100 μg/mL normocin, 100 μg/mL streptomycin, and 100 U/mL penicillin.
(§5) For analysis of Ca^2+ influx in C20 microglial cells, the cells were plated in 96-well black, clear bottom plates at 10^4 cells/well in DMEM/F12 medium containing 10% FBS. The cells were treated with 200 nM PMA for 24 h, and the medium was changed every day for 5 days. On day 5, the cells were loaded with FLIPR Calcium 5 (Molecular Devices) at a volume ratio of 1:1 for 30 min at 37 °C in the dark. The plates were then placed in a FlexStation 3 fluorometer, and basal fluorescence was measured (λex = 485 nm, λem = 538 nm). Essential oils or individual compounds of interest were added manually (final concentration of DMSO was 1%), and fluorescence was monitored for 2 min to assess the direct effects of these treatments on [Ca^2+]i. After a 10 min incubation at 37 °C, the fluorescence baseline was recorded again, and 10 µM fMLF was added to evaluate inhibitory effects on agonist-induced [Ca^2+]i. Responses were normalized to the response induced by 10 µM fMLF.
as §3

[5] = biological target: T1, FPR1-HL60 cells (Homo sapiens, UniProt P21462); assay: Inhibition of fMLF-induced Ca2+ influx in FPR1-HL60 cells; type: cell-based; settings: pure compounds; 10 min preincubation; induced by 5 nM fMLF
T1 construct: expressed in transfected cells
T1 sequence (P21462 1-350): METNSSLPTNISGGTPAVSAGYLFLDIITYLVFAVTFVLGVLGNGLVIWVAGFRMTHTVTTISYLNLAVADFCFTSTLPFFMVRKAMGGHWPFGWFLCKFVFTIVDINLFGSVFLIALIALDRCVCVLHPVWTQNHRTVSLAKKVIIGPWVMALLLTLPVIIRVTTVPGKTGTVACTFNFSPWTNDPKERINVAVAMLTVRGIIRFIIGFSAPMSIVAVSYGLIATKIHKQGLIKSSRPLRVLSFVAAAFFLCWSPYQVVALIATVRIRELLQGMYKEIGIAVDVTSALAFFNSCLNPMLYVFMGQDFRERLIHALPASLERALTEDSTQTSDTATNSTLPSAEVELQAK
Description: (§6) Human promyelocytic leukemia HL60 cells stably transfected with FPR1 (FPR1-HL60 cells) or FPR2 (FPR2-HL60 cells) were kindly provided by Dr. Marie-Josephe Rabiet, INSERM, Grenoble, France. These cells were cultured in RPMI 1640 medium containing 10% heat-inactivated fetal calf serum, 10 mM HEPES, 100 μg/mL streptomycin, 100 U/mL penicillin, and G418 (1 mg/mL). G418 was removed before assays were performed.
as §2, §3

[6] = biological target: T2, FPR2-HL60 cells (Homo sapiens, UniProt P25090); assay: Inhibition of WKYMVM-induced Ca2+ influx in FPR2-HL60 cells; type: cell-based; settings: pure compounds; 10 min preincubation; induced by 5 nM WKYMVM
T2 construct: expressed in transfected cells
T2 sequence (P25090 1-351): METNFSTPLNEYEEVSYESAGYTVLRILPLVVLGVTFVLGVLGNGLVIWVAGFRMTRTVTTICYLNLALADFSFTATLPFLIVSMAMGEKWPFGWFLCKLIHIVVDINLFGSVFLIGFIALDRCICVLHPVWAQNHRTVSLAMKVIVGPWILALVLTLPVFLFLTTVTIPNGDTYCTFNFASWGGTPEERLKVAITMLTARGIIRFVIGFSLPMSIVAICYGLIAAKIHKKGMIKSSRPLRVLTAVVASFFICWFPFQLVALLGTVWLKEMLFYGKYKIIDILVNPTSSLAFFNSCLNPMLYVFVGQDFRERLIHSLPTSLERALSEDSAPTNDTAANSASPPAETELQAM
Description: as §6, §2, §3

[7] = tested on: human C20 microglial cells; assay: Inhibition of fMLF-induced Ca2+ influx in C20 microglial cells; type: cell-based; settings: 10 min, pure compounds, 10 min incubation, induced by 10 μM fMLF
Description: as §4, §5, §3

[8] = tested on: human neutrophils; assay: Inhibition of fMLF-induced Ca2+ influx in human neutrophils; type: cell-based; settings: pure compounds, 10 min preincubation, induced by 5 nM fMLF; for IC50: Homo sapiens, Neutrophil
Source text: as §1, §2, §3

[9] = tested on: human neutrophils; assay: Neutrophil chemotaxis assay (fMLF-induced); type: cell-based; settings: pure compounds, chemotaxis induced by 1 nM fMLF; for IC50: Homo sapiens, Neutrophil
Source text: as §1
Human neutrophils were resuspended in HBSS^+ containing 2% (v/v) heat-inactivated fetal bovine serum (2 × 10^6 cells/mL), and chemotaxis was analyzed in 96-well ChemoTx chemotaxis chambers (Neuroprobe, Gaithersburg, MD), as described previously. Curve fitting (at least eight to nine points) and calculation of median effective concentration values (IC50) were performed by nonlinear regression analysis of the dose-response curves generated using GraphPad Prism 8.

[10] = tested on: HL60 cells; assay: Cytotoxicity assay (CellTiter-Glo) in HL60 cells; type: cell-based, human; settings: 30 min, oils up to 25 µg/mL, compounds up to 25 µM
Description: Cytotoxicity of essential oils and pure compounds was analyzed in human promyelocytic HL60 cells using a CellTiter-Glo Luminescent Cell Viability Assay Kit (Promega), as described previously.

[11] = biological target: T3, MAPKAPK2 (Homo sapiens, UniProt P49137); assay: KINOMEscan kinase Kd determination, MAPKAPK2; type: binding; settings: maximum concentration of 33 µM
T3 construct: purchased Eurofins Pharma Discovery, San Diego, CA, USA (KINOMEscan service)
T3 sequence (P49137 whole entry): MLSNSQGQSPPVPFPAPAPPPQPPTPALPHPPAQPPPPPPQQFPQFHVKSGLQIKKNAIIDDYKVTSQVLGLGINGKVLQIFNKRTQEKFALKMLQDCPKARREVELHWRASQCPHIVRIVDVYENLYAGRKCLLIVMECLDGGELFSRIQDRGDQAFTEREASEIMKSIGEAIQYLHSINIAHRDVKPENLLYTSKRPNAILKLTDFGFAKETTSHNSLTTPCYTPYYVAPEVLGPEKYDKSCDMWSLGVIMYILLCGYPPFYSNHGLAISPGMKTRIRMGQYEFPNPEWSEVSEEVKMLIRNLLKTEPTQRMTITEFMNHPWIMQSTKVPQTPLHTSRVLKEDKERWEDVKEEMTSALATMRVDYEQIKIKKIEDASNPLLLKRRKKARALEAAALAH
Description: (§7) KINOMEscan®® was used to determine the dissociation constant (Kd) of the indicated sesquiterpenes for selected kinases (Eurofins Pharma Discovery, San Diego, CA, USA). […] Assays were performed in duplicate, and the average mean value is shown.

[12] = biological target: T4, JNK3 (Homo sapiens, UniProt P53779); assay: KINOMEscan kinase Kd determination, JNK3; type: binding; settings: maximum concentration of 33 µM
T4 construct: purchased Eurofins Pharma Discovery, San Diego, CA, USA (KINOMEscan service)
T4 sequence (P53779 whole entry): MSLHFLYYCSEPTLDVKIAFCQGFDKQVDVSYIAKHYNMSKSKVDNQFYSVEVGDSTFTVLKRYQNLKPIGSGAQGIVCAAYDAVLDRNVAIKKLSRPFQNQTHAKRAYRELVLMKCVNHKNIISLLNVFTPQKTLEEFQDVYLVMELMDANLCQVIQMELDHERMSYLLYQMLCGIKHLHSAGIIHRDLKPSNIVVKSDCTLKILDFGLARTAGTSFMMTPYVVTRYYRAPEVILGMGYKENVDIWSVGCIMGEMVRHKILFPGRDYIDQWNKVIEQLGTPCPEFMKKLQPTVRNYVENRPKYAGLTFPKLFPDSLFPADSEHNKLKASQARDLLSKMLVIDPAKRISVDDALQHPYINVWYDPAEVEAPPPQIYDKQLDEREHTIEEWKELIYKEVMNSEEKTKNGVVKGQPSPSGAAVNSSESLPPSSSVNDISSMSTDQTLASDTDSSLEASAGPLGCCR
Description: as §7

[13] = biological target: T5, PIM1 (Homo sapiens, UniProt P11309); assay: KINOMEscan kinase Kd determination, PIM1; type: binding; settings: maximum concentration of 33 µM
T5 construct: purchased Eurofins Pharma Discovery, San Diego, CA, USA (KINOMEscan service)
T5 sequence (P11309 whole entry): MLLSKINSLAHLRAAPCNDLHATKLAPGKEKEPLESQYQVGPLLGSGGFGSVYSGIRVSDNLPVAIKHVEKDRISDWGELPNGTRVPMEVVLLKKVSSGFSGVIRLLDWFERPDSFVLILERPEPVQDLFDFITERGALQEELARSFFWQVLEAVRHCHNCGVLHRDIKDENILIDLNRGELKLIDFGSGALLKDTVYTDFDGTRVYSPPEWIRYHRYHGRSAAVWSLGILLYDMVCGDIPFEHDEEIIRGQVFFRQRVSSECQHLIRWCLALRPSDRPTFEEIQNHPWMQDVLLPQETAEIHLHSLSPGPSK
Description: as §7

SMILES: C=CC(=C)CCC=C(C)C [myrcene]
- Activation of neutrophil Ca2+ mobilization [1]: no activating effects
- Inhibition of agonist-induced neutrophil Ca2+ mobilization [2]: no inhibitory effect

SMILES: C=C(C)[C@H]1CC=C(C)CC1 [limonene]
- Activation of neutrophil Ca2+ mobilization [1]: no activating effects
- Inhibition of agonist-induced neutrophil Ca2+ mobilization [2]: no inhibitory effect

SMILES: Cc1ccc(C(C)C)cc1 [p-cymene]
- Activation of neutrophil Ca2+ mobilization [1]: no activating effects
- Inhibition of agonist-induced neutrophil Ca2+ mobilization [2]: no inhibitory effect

SMILES: CC1=CCC2CC1C2(C)C (stereo not drawn) [α-pinene]
- Activation of neutrophil Ca2+ mobilization [1]: no activating effects
- Inhibition of agonist-induced neutrophil Ca2+ mobilization [2]: no inhibitory effect

SMILES: CC1=CCC(O)(C(C)C)CC1 (stereo not drawn) [terpinen-4-ol]
- Activation of neutrophil Ca2+ mobilization [1]: no activating effects
- Inhibition of agonist-induced neutrophil Ca2+ mobilization [2]: no inhibitory effect

SMILES: C=C1CC[C@@H]2[C@H]([C@H]3[C@H]1CC[C@]3(C)O)C2(C)C [Spathulenol, spathulenol]
- EC50 [3]: 39.4 ± 9.5 µM
- EC50 [4]: > 50 µM
- Ca2+ Influx C20 cells EC50 [4]: inactive or had very low activity
- IC50 [5]: 32.2 ± 6.4 µM
- IC50 [6]: 31.6 ± 5.3 µM
- IC50 [7]: 9.8 ± 3.4 µM
- IC50 [8]: 36.2 ± 8.2 µM
- IC50 [9]: 4.9 ± 0.8 µM
- Cell viability (cytotoxicity), 30 min incubation [10]: minimal effects on cell viability
- Binding affinity (Kd) toward MAPKAPK2 [11]: did not observe any binding activity
- Binding affinity (Kd) toward JNK3 [12]: did not observe any binding activity
- Binding affinity (Kd) toward PIM1 [13]: did not observe any binding activity

SMILES: CC1=CC=C(C(C)C)CC1 [α-terpinene]
- Activation of neutrophil Ca2+ mobilization [1]: no activating effects
- Inhibition of agonist-induced neutrophil Ca2+ mobilization [2]: no inhibitory effect

SMILES: C=CC(C)(O)CCC=C(C)C (stereo not drawn) [linalool]
- Activation of neutrophil Ca2+ mobilization [1]: no activating effects
- Inhibition of agonist-induced neutrophil Ca2+ mobilization [2]: no inhibitory effect

SMILES: CC1=CCC(C(C)C)=CC1 [γ-terpinene]
- Activation of neutrophil Ca2+ mobilization [1]: no activating effects
- Inhibition of agonist-induced neutrophil Ca2+ mobilization [2]: no inhibitory effect

SMILES: C=C1C2CCC(C2)C1(C)C (stereo not drawn) [camphene]
- Inhibition of agonist-induced neutrophil Ca2+ mobilization [2]: no inhibitory effect

SMILES: C=C1CCC2(C(C)C)CC12 (stereo not drawn) [sabinene]
- Activation of neutrophil Ca2+ mobilization [1]: no activating effects
- Inhibition of agonist-induced neutrophil Ca2+ mobilization [2]: no inhibitory effect

SMILES: C=C1/C=C/[C@H](C(C)C)CC/C(C)=C/CC1 [germacrene D]
- Inhibition of agonist-induced Ca2+ mobilization in human neutrophils [2]: inhibited

SMILES: C=C1CC/C=C(\C)CC[C@@H]2[C@@H]1CC2(C)C [β-caryophyllene]
- Inhibition of agonist-induced Ca2+ mobilization in human neutrophils [2]: inhibited

SMILES: C=C1CCC2CC1C2(C)C (stereo not drawn) [β-pinene]
- Activation of neutrophil Ca2+ mobilization [1]: no activating effects
- Inhibition of agonist-induced neutrophil Ca2+ mobilization [2]: no inhibitory effect

SMILES: C=C1C=CC(C(C)C)CC1 (stereo not drawn) [β-Phellandrene, β-phellandrene]
- EC50 [3]: > 50 µM
- Ca2+ Influx Neutrophils EC50 [3]: inactive
- EC50 [4]: > 50 µM
- Ca2+ Influx C20 cells EC50 [4]: inactive
- FPR1-HL60 Ca2+ Influx IC50 [5]: no effect
- IC50 [5]: > 50 µM
- FPR2-HL60 Ca2+ Influx IC50 [6]: no effect
- IC50 [6]: > 50 µM
- IC50 [7]: > 50 µM
- IC50 [8]: > 50 µM
- Neutrophils Ca2+ Influx IC50 [8]: no effect
- IC50 [9]: > 50 µM
- Neutrophils Chemotaxis IC50 [9]: inactive

SMILES: C/C1=C\CC/C(C)=C/CC(C)(C)/C=C/C1 [α-humulene]
- Inhibition of agonist-induced Ca2+ mobilization in human neutrophils [2]: inhibited

SMILES: CC1=CCC(=C(C)C)CC1 [terpinolene]
- Activation of neutrophil Ca2+ mobilization [1]: no activating effects
- Inhibition of agonist-induced neutrophil Ca2+ mobilization [2]: no inhibitory effect
